What was measured:
[1] = target: T1, WNK3 (Homo sapiens, UniProt Q9BYP7); assay: KINOMEscan panel screen; type: binding; conditions: read-out: Percent Control(%)
T1 construct: purchased DiscoveRx KINOMEscan (Ambit Biosciences)

[2] = system: EGFR(L747-T751del,Sins); assay: KINOMEscan panel screen; type: binding; conditions: 10 μM
[3] = target: T2, TGFBR2 (Homo sapiens, UniProt P37173); assay: KINOMEscan panel screen; type: binding; conditions: read-out: Percent Control(%)
T2 construct: purchased DiscoveRx KINOMEscan (Ambit Biosciences)
T2 sequence (P37173 23-567): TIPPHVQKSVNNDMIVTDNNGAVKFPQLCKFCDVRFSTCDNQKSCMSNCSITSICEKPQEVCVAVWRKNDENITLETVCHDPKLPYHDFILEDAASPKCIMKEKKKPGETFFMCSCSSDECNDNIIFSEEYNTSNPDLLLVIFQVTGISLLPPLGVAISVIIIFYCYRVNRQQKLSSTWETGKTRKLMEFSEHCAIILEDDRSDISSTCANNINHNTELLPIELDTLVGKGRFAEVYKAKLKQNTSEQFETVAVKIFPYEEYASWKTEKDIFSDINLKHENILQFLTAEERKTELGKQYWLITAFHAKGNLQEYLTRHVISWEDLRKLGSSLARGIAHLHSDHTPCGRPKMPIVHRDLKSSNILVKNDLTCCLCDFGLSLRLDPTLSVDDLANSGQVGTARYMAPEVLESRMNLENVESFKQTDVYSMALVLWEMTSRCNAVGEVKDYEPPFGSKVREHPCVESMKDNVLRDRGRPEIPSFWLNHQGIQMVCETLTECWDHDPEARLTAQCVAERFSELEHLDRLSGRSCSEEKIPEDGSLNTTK

[4] = target: T3, JNK2 (Homo sapiens, UniProt P45984); assay: KINOMEscan panel screen; type: binding; conditions: read-out: Percent Control(%)
T3 construct: purchased DiscoveRx KINOMEscan (Ambit Biosciences)

[5] = target: T4, TGFBR1 (Homo sapiens, UniProt P36897); assay: KINOMEscan kinase binding assay (Kd)
T4 construct: DNA tag (qPCR read-out); purchased Ambit Biosciences (KINOMEscan service)

[6] = target: T5, PIK3CB (Homo sapiens, UniProt P42338); assay: KINOMEscan panel screen; type: binding; conditions: read-out: Percent Control(%)
T5 construct: purchased DiscoveRx KINOMEscan (Ambit Biosciences)

[7] = target: T6, KIT(L576P) (Homo sapiens, UniProt P10721, L576P); assay: KINOMEscan panel screen; type: binding; conditions: read-out: Percent Control(%)
T6 construct: purchased DiscoveRx KINOMEscan (Ambit Biosciences)

[8] = target: CDK2 (Homo sapiens, UniProt P24941); assay: KINOMEscan panel screen; type: binding; conditions: read-out: Percent Control(%)
[9] = target: T7, RIPK1 (Homo sapiens, UniProt Q13546); assay: KINOMEscan panel screen; type: binding; conditions: read-out: Percent Control(%)
T7 construct: purchased DiscoveRx KINOMEscan (Ambit Biosciences)

[10] = system: A2058; assay: MTT cell viability assay; conditions: Homo sapiens, A2058, 72 h
[11] = target: T8, MLK1 (Homo sapiens, UniProt P80192); assay: KINOMEscan panel screen; type: binding; conditions: read-out: Percent Control(%)
T8 construct: purchased DiscoveRx KINOMEscan (Ambit Biosciences)

[12] = system: primary AML PBMCs; assay: CellTiterGlo viability assay, primary AML samples; type: cell-based, human; conditions: Homo sapiens, PBMC, 72 h
Text: The patients’ information is listed in Supplementary Table S5. For comparison, three normal PB samples were also collected (sample #7, #8, #9). Peripheral blood mononuclear cells (PBMCs) were isolated from each sample in the following assays.
Methods used in this study were approved by the Ethics Committee of the West China Hospital. Informed consent for the use of human AML and normal peripheral blood (PB) samples for the present study was obtained from all patients according to the Declaration of Helsinki.
Effects of compounds on the PBMC viability were examined using CellTiterGlo (Promega) assays. […] The signal from the viable cells was assessed according to the manufacturer’s protocol.

[13] = target: T9, EPHA5 (Homo sapiens, UniProt P54756); assay: KINOMEscan panel screen; type: binding; conditions: read-out: Percent Control(%)
T9 construct: purchased DiscoveRx KINOMEscan (Ambit Biosciences)

[14] = target: T10, FYN (Homo sapiens, UniProt P06241); assay: KINOMEscan panel screen; type: binding; conditions: read-out: Percent Control(%)
T10 construct: purchased DiscoveRx KINOMEscan (Ambit Biosciences)
T10 sequence (P06241 whole entry): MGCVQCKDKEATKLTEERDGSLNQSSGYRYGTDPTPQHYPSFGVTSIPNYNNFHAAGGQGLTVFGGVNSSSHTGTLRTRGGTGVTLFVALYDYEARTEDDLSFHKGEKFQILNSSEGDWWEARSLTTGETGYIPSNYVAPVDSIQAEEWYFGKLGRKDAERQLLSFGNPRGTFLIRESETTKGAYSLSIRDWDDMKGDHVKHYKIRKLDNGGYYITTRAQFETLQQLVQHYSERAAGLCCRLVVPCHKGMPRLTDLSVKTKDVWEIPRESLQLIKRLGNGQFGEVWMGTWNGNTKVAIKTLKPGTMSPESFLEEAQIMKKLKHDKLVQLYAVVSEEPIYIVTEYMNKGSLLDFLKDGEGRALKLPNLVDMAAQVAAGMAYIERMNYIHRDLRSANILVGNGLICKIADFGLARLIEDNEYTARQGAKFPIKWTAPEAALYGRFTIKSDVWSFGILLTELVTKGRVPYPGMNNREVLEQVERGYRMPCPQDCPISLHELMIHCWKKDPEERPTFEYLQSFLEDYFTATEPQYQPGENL

[15] = target: T11, PCTK3 (Homo sapiens, UniProt Q07002); assay: KINOMEscan panel screen; type: binding; conditions: read-out: Percent Control(%)
T11 construct: purchased DiscoveRx KINOMEscan (Ambit Biosciences)

[16] = target: T12, EIF2AK1 (Homo sapiens, UniProt Q9BQI3); assay: KINOMEscan panel screen; type: binding; conditions: read-out: Percent Control(%)
T12 construct: purchased DiscoveRx KINOMEscan (Ambit Biosciences)

[17] = target: T13, KIT(D816H) (Homo sapiens, UniProt P10721, D816H); assay: KINOMEscan panel screen; type: binding; conditions: read-out: Percent Control(%)
T13 construct: purchased DiscoveRx KINOMEscan (Ambit Biosciences)

[18] = target: T14, CDK5 (Homo sapiens, UniProt Q00535); assay: KINOMEscan panel screen; type: binding; conditions: read-out: Percent Control(%)
T14 construct: purchased DiscoveRx KINOMEscan (Ambit Biosciences)
T14 sequence (Q00535 whole entry): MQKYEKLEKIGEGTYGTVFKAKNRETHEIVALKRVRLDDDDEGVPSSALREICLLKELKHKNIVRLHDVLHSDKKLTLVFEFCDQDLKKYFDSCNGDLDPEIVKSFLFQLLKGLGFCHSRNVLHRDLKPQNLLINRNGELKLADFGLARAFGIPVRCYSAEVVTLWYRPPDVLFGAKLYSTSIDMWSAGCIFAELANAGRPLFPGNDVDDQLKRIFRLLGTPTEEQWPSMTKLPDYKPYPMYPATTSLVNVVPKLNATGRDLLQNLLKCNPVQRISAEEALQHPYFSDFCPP

[19] = target: T15, ERK4 (Homo sapiens, UniProt P31152); assay: KINOMEscan panel screen; type: binding; conditions: read-out: Percent Control(%)
T15 construct: purchased DiscoveRx KINOMEscan (Ambit Biosciences)
T15 sequence (P31152 whole entry): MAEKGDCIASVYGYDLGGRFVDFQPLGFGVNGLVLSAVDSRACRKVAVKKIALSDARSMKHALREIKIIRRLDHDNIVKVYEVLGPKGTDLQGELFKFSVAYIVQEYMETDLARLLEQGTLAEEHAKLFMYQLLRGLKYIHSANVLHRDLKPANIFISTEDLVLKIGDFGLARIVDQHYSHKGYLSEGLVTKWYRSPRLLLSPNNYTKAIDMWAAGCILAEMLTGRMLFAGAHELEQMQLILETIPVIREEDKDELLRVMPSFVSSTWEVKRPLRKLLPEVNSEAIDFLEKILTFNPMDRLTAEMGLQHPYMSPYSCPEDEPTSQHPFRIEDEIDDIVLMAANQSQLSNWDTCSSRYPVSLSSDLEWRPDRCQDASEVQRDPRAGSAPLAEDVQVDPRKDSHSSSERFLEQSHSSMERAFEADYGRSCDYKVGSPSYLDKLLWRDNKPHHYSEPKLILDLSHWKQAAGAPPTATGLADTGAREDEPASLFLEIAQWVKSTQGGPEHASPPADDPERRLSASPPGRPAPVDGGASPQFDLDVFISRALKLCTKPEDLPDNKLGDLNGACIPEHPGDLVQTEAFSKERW

[20] = target: T16, TNIK (Homo sapiens, UniProt Q9UKE5); assay: KINOMEscan panel screen; type: binding; conditions: read-out: Percent Control(%)
T16 construct: purchased DiscoveRx KINOMEscan (Ambit Biosciences)

[21] = target: PAK1 (Homo sapiens, UniProt Q13153); assay: KINOMEscan panel screen; type: binding; conditions: read-out: Percent Control(%)
[22] = target: T17, BRAF (Homo sapiens, UniProt P15056); assay: KINOMEscan panel screen; type: binding; conditions: read-out: Percent Control(%)
T17 construct: purchased DiscoveRx KINOMEscan (Ambit Biosciences)

[23] = system: FLT3(ITD); assay: KINOMEscan panel screen; type: binding, human; conditions: 10 μM
[24] = target: T18, RIOK2 (Homo sapiens, UniProt Q9BVS4); assay: KINOMEscan panel screen; type: binding; conditions: read-out: Percent Control(%)
T18 construct: purchased DiscoveRx KINOMEscan (Ambit Biosciences)

[25] = target: T19, EGFR(E746-A750del) (Homo sapiens, UniProt P00533, DEL746-750); assay: KINOMEscan panel screen; type: binding; conditions: read-out: Percent Control(%)
T19 construct: purchased DiscoveRx KINOMEscan (Ambit Biosciences)
T19 sequence (P00533 with tags, fused parts or gaps DEL746-750 limits assumed): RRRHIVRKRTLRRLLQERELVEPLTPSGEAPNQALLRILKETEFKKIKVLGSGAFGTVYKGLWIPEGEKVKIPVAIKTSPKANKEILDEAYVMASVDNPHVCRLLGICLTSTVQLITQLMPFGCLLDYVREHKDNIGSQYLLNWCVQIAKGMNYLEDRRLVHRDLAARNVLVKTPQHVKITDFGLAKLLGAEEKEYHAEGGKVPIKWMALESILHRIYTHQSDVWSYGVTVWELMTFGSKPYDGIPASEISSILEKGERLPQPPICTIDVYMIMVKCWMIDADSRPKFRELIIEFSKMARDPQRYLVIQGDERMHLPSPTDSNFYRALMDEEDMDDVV

[26] = target: T20, PIK3CA (Homo sapiens, UniProt P42336); assay: KINOMEscan panel screen; type: binding; conditions: read-out: Percent Control(%)
T20 construct: purchased DiscoveRx KINOMEscan (Ambit Biosciences)

[27] = target: T21, MET(M1250T) (Homo sapiens, UniProt P08581, M1250T); assay: KINOMEscan panel screen; type: binding; conditions: read-out: Percent Control(%)
T21 construct: purchased DiscoveRx KINOMEscan (Ambit Biosciences)

[28] = target: T22, RET(V804M) (Homo sapiens, UniProt P07949, V804M); assay: KINOMEscan panel screen; type: binding; conditions: read-out: Percent Control(%)
T22 construct: purchased DiscoveRx KINOMEscan (Ambit Biosciences)

[29] = target: T23, ABL1(T315I)-phosphorylated (Homo sapiens, UniProt P00519, T315I); assay: KINOMEscan panel screen; type: binding; conditions: read-out: Percent Control(%)
T23 construct: purchased DiscoveRx KINOMEscan (Ambit Biosciences)

[30] = target: T24, PRKCD (Homo sapiens, UniProt Q05655); assay: KINOMEscan panel screen; type: binding; conditions: read-out: Percent Control(%)
T24 construct: purchased DiscoveRx KINOMEscan (Ambit Biosciences)

[31] = target: T25, MKK7 (Homo sapiens, UniProt O14733); assay: KINOMEscan panel screen; type: binding; conditions: read-out: Percent Control(%)
T25 construct: purchased DiscoveRx KINOMEscan (Ambit Biosciences)

[32] = target: T26, BRSK1 (Homo sapiens, UniProt Q8TDC3); assay: KINOMEscan panel screen; type: binding; conditions: read-out: Percent Control(%)
T26 construct: purchased DiscoveRx KINOMEscan (Ambit Biosciences)

[33] = target: T27, MYLK2 (Homo sapiens, UniProt Q9H1R3); assay: KINOMEscan panel screen; type: binding; conditions: read-out: Percent Control(%)
T27 construct: purchased DiscoveRx KINOMEscan (Ambit Biosciences)

[34] = target: T28, PFCDPK1(P.falciparum) (Plasmodium falciparum, UniProt P62344); assay: KINOMEscan panel screen; type: binding; conditions: read-out: Percent Control(%)
T28 construct: purchased DiscoveRx KINOMEscan (Ambit Biosciences)

[35] = target: T29, RSK1(Kin.Dom.2-C-terminal) (Homo sapiens, UniProt Q15418); assay: KINOMEscan panel screen; type: binding; conditions: read-out: Percent Control(%)
T29 construct: RSK1(Kin.Dom.2-C-terminal); purchased DiscoveRx KINOMEscan (Ambit Biosciences)
T29 sequence (Q15418 418-675 limits assumed): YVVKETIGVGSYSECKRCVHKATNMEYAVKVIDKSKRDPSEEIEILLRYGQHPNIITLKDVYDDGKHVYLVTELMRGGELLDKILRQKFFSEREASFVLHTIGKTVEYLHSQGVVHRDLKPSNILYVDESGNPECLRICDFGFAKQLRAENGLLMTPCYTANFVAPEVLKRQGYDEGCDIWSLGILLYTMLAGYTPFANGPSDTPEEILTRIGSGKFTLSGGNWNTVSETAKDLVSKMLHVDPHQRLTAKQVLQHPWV

[36] = target: T30, SRC (Homo sapiens, UniProt P12931); assay: KINOMEscan panel screen; type: binding; conditions: read-out: Percent Control(%)
T30 construct: purchased DiscoveRx KINOMEscan (Ambit Biosciences)
T30 sequence (P12931 whole entry): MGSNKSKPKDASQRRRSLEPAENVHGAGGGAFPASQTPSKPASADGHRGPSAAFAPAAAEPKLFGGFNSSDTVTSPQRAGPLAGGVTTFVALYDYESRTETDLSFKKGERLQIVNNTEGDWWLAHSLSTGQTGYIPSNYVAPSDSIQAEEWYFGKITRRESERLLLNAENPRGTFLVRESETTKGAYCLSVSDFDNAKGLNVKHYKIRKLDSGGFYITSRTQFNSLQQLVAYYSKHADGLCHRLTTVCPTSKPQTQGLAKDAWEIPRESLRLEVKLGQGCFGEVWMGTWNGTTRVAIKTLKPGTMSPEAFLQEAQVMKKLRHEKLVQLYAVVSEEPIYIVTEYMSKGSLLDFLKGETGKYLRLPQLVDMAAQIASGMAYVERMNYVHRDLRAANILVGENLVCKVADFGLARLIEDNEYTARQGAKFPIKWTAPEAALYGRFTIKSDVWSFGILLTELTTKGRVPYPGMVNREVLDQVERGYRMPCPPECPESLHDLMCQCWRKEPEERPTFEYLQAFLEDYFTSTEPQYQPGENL

[37] = target: ERBB2 (Homo sapiens, UniProt P04626); assay: KINOMEscan kinase binding assay (Kd)

T1 sequence (Q9BYP7 whole entry): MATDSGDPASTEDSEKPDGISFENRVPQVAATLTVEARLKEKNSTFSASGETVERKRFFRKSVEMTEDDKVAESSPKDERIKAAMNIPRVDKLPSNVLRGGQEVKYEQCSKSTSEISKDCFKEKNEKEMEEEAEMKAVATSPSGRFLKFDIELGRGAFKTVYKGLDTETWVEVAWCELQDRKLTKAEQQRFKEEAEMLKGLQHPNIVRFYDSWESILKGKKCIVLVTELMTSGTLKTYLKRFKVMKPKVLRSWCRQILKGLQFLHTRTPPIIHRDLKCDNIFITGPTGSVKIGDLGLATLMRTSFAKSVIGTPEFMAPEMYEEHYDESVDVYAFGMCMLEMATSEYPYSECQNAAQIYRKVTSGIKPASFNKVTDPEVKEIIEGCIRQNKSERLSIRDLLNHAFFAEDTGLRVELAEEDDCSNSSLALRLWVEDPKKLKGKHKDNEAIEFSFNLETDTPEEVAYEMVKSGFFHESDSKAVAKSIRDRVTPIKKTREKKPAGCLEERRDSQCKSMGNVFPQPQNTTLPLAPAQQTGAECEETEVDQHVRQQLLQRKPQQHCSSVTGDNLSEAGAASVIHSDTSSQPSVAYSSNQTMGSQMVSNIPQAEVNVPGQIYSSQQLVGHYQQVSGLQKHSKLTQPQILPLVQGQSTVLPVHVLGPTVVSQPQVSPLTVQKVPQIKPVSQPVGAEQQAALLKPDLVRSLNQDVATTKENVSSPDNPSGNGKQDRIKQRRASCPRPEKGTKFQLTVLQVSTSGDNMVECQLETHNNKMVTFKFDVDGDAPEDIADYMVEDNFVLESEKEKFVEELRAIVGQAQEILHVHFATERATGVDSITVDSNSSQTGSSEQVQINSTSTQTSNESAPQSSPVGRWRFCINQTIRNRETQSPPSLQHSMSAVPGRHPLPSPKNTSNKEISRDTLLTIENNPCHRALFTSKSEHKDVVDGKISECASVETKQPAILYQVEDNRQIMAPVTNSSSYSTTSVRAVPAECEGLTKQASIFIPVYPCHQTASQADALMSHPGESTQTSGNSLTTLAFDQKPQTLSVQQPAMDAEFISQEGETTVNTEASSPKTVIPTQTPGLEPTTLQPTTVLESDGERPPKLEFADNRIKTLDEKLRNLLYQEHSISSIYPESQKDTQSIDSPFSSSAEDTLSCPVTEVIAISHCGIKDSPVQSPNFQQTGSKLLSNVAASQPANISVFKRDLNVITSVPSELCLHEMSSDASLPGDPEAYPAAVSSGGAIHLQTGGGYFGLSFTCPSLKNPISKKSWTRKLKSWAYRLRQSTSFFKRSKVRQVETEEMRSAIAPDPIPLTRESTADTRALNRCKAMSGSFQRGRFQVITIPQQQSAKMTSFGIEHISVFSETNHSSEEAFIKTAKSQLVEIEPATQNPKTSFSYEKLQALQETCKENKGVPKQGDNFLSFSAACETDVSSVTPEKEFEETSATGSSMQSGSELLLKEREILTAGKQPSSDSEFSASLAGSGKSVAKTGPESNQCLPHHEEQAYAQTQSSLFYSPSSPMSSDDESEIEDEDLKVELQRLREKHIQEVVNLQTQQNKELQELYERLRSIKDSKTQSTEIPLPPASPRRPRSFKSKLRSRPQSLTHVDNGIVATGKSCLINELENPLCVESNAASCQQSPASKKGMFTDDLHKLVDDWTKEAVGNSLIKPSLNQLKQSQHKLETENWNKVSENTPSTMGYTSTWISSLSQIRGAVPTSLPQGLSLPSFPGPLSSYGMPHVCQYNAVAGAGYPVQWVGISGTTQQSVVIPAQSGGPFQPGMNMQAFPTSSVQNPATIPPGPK

CC(C)(C)c1cc(NC(=O)Nc2ccc(Oc3ncnc4[nH]ncc34)c(F)c2)no1 [SKLB-677, 1-(4-(1H-pyrazolo[3,4-d]pyrimidin-4-yloxy)-3-fluorophenyl)-3-(5-tert-butylisoxazol-3-yl)urea]
remaining binding at 10 µM [1]: 100% | Percent Control(%) [2]: 61% | remaining binding at 10 µM [3]: 100% | remaining binding at 10 µM [4]: 2% | Kd [5]: > 10000 nM | remaining binding at 10 µM [6]: 100% | remaining binding at 10 µM [7]: 0% | remaining binding at 10 µM [8]: 1.6% | remaining binding at 10 µM [9]: 31% | IC50 [10]: > 10000 nM | remaining binding at 10 µM [11]: 42% | IC50 ([12]; sample #1, FLT3-ITD positive): 1.09 nM | IC50 ([12]; sample #2, FLT3-ITD positive): 1.39 nM | IC50 ([12]; sample #3, FLT3-ITD positive): 0.46 nM | IC50 ([12]; sample #4, FLT3-ITD negative): > 100 nM | IC50 ([12]; sample #5, FLT3-ITD negative): > 100 nM | IC50 ([12]; sample #6, FLT3-ITD negative): > 100 nM | remaining binding at 10 µM [13]: 0.7% | remaining binding at 10 µM [14]: 15% | remaining binding at 10 µM [15]: 0.05% | remaining binding at 10 µM [16]: 96% | remaining binding at 10 µM [17]: 8.4% | remaining binding at 10 µM [18]: 4.2% | remaining binding at 10 µM [19]: 98% | remaining binding at 10 µM [20]: 5.2% | remaining binding at 10 µM [21]: 68% | remaining binding at 10 µM [22]: 2.7% | Percent Control(%) [23]: 0.05% | remaining binding at 10 µM [24]: 88% | remaining binding at 10 µM [25]: 37% | remaining binding at 10 µM [26]: 100% | remaining binding at 10 µM [27]: 2.2% | remaining binding at 10 µM [28]: 1.9% | remaining binding at 10 µM [29]: 3.3% | remaining binding at 10 µM [30]: 61% | remaining binding at 10 µM [31]: 77% | remaining binding at 10 µM [32]: 85% | remaining binding at 10 µM [33]: 72% | remaining binding at 10 µM [34]: 26% | remaining binding at 10 µM [35]: 94% | remaining binding at 10 µM [36]: 9.2% | Kd [37]: > 10000 nM
